Drawing on patent US9266883B2, “Ring-fused bicyclic pyridyl derivatives as FGFR4 inhibitors” (Novartis AG, priority 2013, dated 2016), this text covers IC50 for 20 compounds.

The target in assay [1] is FGFR4 (GST-FGFR4(388-802)) (Homo sapiens (Human), UniProt P22455). The assay is described as follows: In-vitro biochemical kinase assay for FGFR4 (Caliper microfluidic mobility shift). The following applies: biochemical FGFR4 assay; read-out: Biochemical IC50.
Assay [2] concerns the target Tel-FGFR4 (Homo sapiens (Human), UniProt P22455). The assay is described as follows: In vitro cellular kinase assay for FGFR4 (BaF3-Tel-FGFR4 cells, MSD capture ELISA of tyrosine phosphorylation). The following applies: Cellular BaF3 FGFR4 assay; read-out: Cellular IC50. Format: cell-based.

Chain of FGFR4 (GST-FGFR4(388-802)) (P22455 388-802): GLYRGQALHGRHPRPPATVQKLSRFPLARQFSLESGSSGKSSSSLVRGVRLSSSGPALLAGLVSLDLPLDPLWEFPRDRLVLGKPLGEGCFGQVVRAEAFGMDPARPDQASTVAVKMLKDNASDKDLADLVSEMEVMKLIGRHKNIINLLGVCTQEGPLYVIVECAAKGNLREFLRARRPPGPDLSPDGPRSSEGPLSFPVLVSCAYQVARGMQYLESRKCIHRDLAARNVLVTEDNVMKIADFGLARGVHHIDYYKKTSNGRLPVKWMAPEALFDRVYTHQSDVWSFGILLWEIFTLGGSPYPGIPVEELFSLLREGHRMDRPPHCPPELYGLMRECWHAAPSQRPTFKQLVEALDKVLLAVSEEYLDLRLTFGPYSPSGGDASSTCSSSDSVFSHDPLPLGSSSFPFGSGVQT
Chain of Tel-FGFR4 (P22455 other isoform, or with tags, fused parts or gaps): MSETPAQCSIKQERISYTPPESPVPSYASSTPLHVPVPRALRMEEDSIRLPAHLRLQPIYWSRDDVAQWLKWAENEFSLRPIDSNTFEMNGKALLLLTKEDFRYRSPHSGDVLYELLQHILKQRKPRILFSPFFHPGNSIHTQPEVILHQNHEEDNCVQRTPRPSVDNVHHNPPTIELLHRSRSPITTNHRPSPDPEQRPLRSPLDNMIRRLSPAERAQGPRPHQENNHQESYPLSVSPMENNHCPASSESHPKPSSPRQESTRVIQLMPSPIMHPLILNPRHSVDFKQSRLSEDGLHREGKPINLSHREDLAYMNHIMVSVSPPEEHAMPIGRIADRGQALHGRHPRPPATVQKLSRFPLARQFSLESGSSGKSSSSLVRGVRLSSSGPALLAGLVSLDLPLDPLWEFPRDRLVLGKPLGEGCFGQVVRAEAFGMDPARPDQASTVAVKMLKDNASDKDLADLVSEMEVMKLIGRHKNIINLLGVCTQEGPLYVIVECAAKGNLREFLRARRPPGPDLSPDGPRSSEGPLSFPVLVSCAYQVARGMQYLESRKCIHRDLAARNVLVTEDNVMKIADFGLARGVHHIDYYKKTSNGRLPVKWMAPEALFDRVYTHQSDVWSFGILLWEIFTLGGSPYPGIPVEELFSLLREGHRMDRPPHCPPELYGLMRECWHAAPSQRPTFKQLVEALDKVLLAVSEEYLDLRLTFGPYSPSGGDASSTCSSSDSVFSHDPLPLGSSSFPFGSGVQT

On to `CCC(=O)N(C)Cc1cc2c(nc1C=O)N(C(=O)Nc1cc(NCCOC)c(C#N)cn1)CCC2` [N-(5-cyano-4-((2-methoxyethyl)amino)pyridin-2-yl)-7-formyl-6-((N-methylpropionamido)methyl)-3,4-dihydro-1,8-naphthyridine-1(2H)-carboxamide], for which the IC50 in assay [1] was determined as 0.6 nM; in assay [2] it was 4 nM.

Take `COCCNc1cc(NC(=O)N2CCCc3cc(-c4ccncc4)c(C=O)nc32)ncc1C#N` [N-(5-cyano-4-((2-methoxyethyl)amino)pyridin-2-yl)-7-formyl-6-(pyridin-4-yl)-3,4-dihydro-1,8-naphthyridine-1(2H)-carboxamide]: the IC50 in assay [1] is 3.1 nM; in assay [2], 14.5 nM.

In the case of `COC(C)CNc1cc(NC(=O)N2CCCc3cc(C(F)F)c(C=O)nc32)ncc1C#N` (stereo not shown) [N-(5-cyano-4-((2-methoxypropyl)amino)pyridin-2-yl)-6-(difluoromethyl)-7-formyl-3,4-dihydro-1,8-naphthyridine-1(2H)-carboxamide], the IC50 came out at 1.1 nM in assay [1] and 18.8 nM in assay [2].

In the case of `CC(=O)N(C)Cc1cc2c(nc1C=O)N(C(=O)Nc1cc(NCC3CN(C)CCO3)c(C#N)cn1)CCC2` (stereo not shown) [N-(5-cyano-4-(((4-methylmorpholin-2-yl)methyl)amino)pyridin-2-yl)-7-formyl-6-((N-methylacetamido)methyl)-3,4-dihydro-1,8-naphthyridine-1(2H)-carboxamide], the IC50 in assay [1] is 2.6 nM; in assay [2] it was 21 nM.

Turning to `CCNc1cc(NC(=O)N2CCCc3cc(CN(CC)C(=O)CN(C)C)c(C=O)nc32)ncc1C#N` [N-(5-cyano-4-(ethylamino)pyridin-2-yl)-6-((2-(dimethylamino)-N-ethylacetamido)methyl)-7-formyl-3,4-dihydro-1,8-naphthyridine-1(2H)-carboxamide], the IC50 in assay [1] was found to be 0.2 nM; in assay [2], 10.2 nM.

As to `CCNc1cc(NC(=O)N2CCCc3cc(CN(C)C(=O)CN(C)C)c(C=O)nc32)ncc1C#N` [N-(5-cyano-4-(ethylamino)pyridin-2-yl)-6-((2-(dimethylamino)-N-methylacetamido)methyl)-7-formyl-3,4-dihydro-1,8-naphthyridine-1(2H)-carboxamide], the figures for the IC50 in assay [1] and in assay [2] were 0.2 nM and 3.6 nM, respectively.

Turning to `CCNc1cc(NC(=O)N2CCCc3cc(CN4CCN(C)CC4=O)c(C=O)nc32)ncc1C#N` [N-(5-cyano-4-(ethylamino)pyridin-2-yl)-7-formyl-6-((4-methyl-2-oxopiperazin-1-yl)methyl)-3,4-dihydro-1,8-naphthyridine-1(2H)-carboxamide], the values for the IC50 in assay [1] and in assay [2] were 3.4 nM and 12 nM, respectively.

Turning to `CCN(Cc1cc2c(nc1C=O)N(C(=O)Nc1cc(NC(C)C)c(C#N)cn1)CCC2)C(=O)CN(C)C` [N-(5-cyano-4-(isopropylamino)pyridin-2-yl)-6-((2-(dimethylamino)-N-ethylacetamido)methyl)-7-formyl-3,4-dihydro-1,8-naphthyridine-1(2H)-carboxamide], the concentration for half-maximal inhibition (IC50) in assay [1] is 0.8 nM; in assay [2], 10.4 nM.

As for `CC(C)Nc1cc(NC(=O)N2CCCc3cc(CN(C)C(=O)CN(C)C)c(C=O)nc32)ncc1C#N` [N-(5-cyano-4-(isopropylamino)pyridin-2-yl)-6-((2-(dimethylamino)-N-methylacetamido)methyl)-7-formyl-3,4-dihydro-1,8-naphthyridine-1(2H)-carboxamide], the IC50 in assay [1] stood at 0.6 nM; in assay [2] it was 11.5 nM.

Turning to `CC(C)Nc1cc(NC(=O)N2CCCc3cc(C(F)F)c(C=O)nc32)ncc1C#N` [N-(5-cyano-4-(isopropylamino)pyridin-2-yl)-6-(difluoromethyl)-7-formyl-3,4-dihydro-1,8-naphthyridine-1(2H)-carboxamide], the figures for the IC50 in assay [1] and in assay [2] were 1.3 nM and 20.3 nM, respectively.

Consider `CC(C)Nc1cc(NC(=O)N2CCCc3cc(CO)c(C=O)nc32)ncc1C#N` [N-(5-cyano-4-(isopropylamino)pyridin-2-yl)-7-formyl-6-(hydroxymethyl)-3,4-dihydro-1,8-naphthyridine-1(2H)-carboxamide], for which the IC50 in assay [1] was found to be 2 nM; in assay [2], 8.6 nM.

On to `CCN(Cc1cc2c(nc1C=O)N(C(=O)Nc1cc(NC)c(C#N)cn1)CCC2)C(=O)CN(C)C` [N-(5-cyano-4-(methylamino)pyridin-2-yl)-6-((2-(dimethylamino)-N-ethylacetamido)methyl)-7-formyl-3,4-dihydro-1,8-naphthyridine-1(2H)-carboxamide], for which the figures for the IC50 in assay [1] and in assay [2] were 12 nM and 13 nM, respectively.

Consider `CCOc1cc(NC(=O)N2CCCc3cc(CN4CCN(C)CC4=O)c(C=O)nc32)ncc1C#N` [N-(5-cyano-4-ethoxypyridin-2-yl)-7-formyl-6-((4-methyl-2-oxopiperazin-1-yl)methyl)-3,4-dihydro-1,8-naphthyridine-1(2H)-carboxamide], for which the IC50 in assay [1] was determined as 1.3 nM; in assay [2], 6.9 nM.

For the compound `CCc1cc(NC(=O)N2CCCc3cc(CN4CCN(C)CC4=O)c(C=O)nc32)ncc1C#N` [N-(5-cyano-4-ethylpyridin-2-yl)-7-formyl-6-((4-methyl-2-oxopiperazin-1-yl)methyl)-3,4-dihydro-1,8-naphthyridine-1(2H)-carboxamide], the IC50 was found to be 8.9 nM in assay [1] and 22.5 nM in assay [2].

In the case of `CC(C)COc1cc(NC(=O)N2CCCc3cc(C(F)F)c(C=O)nc32)ncc1C#N` [N-(5-cyano-4-isobutoxypyridin-2-yl)-6-(difluoromethyl)-7-formyl-3,4-dihydro-1,8-naphthyridine-1(2H)-carboxamide], the IC50 worked out at 30 nM in assay [1] and 139 nM in assay [2].

As to `CC(=O)N(C)Cc1cc2c(nc1C=O)N(C(=O)Nc1cc(OCC(C)C)c(C#N)cn1)CCC2` [N-(5-cyano-4-isobutoxypyridin-2-yl)-7-formyl-6-((N-methylacetamido)methyl)-3,4-dihydro-1,8-naphthyridine-1(2H)-carboxamide], the IC50 in assay [1] came to 1.3 nM; in assay [2] it was 6 nM.

Turning to `CC(C)Oc1cc(NC(=O)N2CCCc3cc(C(F)F)c(C=O)nc32)ncc1C#N` [N-(5-cyano-4-isopropoxypyridin-2-yl)-6-(difluoromethyl)-7-formyl-3,4-dihydro-1,8-naphthyridine-1(2H)-carboxamide], the IC50 in assay [1] is 1.2 nM; in assay [2] it was 21 nM.

In the case of `CC(C)Oc1cc(NC(=O)N2c3nc(C=O)ccc3CCC2C)ncc1C#N` (stereo not shown) [N-(5-cyano-4-isopropoxypyridin-2-yl)-7-formyl-2-methyl-3,4-dihydro-1,8-naphthyridine-1(2H)-carboxamide], the IC50 is 0.9 nM in assay [1] and 328 nM in assay [2].

`CC(C)Oc1cc(NC(=O)N2CCCc3cc(CN4CCOC4=O)c(C=O)nc32)ncc1C#N` [N-(5-cyano-4-isopropoxypyridin-2-yl)-7-formyl-6-((2-oxooxazolidin-3-yl)methyl)-3,4-dihydro-1,8-naphthyridine-1(2H)-carboxamide]: the IC50 came to 1.3 nM in assay [1] and 5.6 nM in assay [2].

In the case of `CC(C)Oc1cc(NC(=O)N2CCCc3cc(CN4CCNCC4=O)c(C=O)nc32)ncc1C#N` [N-(5-cyano-4-isopropoxypyridin-2-yl)-7-formyl-6-((2-oxopiperazin-1-yl)methyl)-3,4-dihydro-1,8-naphthyridine-1(2H)-carboxamide], the figures for the IC50 in assay [1] and in assay [2] were 2.1 nM and 9.9 nM, respectively.
